Source: patent publication US4368261A, “Method and reagent for the determination of triglycerides” (priority 1979, dated 1983)

Legend:
Assay in all cases: Stability of glycerokinase in the presence of dichlorophenol at 25° C. (Table 2)
Format in all cases: biochemical
[1] = biological target: glycerokinase (GK) from Bacillus stearothermophilis (Geobacillus stearothermophilus, UniProt A0ACH1EBP7)
From the text: (§1) It is known that Bacillus stearothermophilis contains a glycerokinase (see J. Appl. Bac., 38, 301-304/1975). However, it could not be deduced from this that this glycerokinase would display a good stability towards the mentioned group of activators which would permit its use together with these activators.

[2] = biological target: T1, glycerokinase (GK) from Escherichia coli (commercially available) (Escherichia coli, UniProt P0A6F3)
T1 construct: purchased
From the text: as §1

[3] = test system: glycerokinase (GK, E.C. 2.7.1.30) from Candida mycoderma
From the text: as §1

Substance: dichlorophenol
- residual activity after 30 min. ([1]; 2 mM dichlorophenol): 100%
- residual activity after 60 min. ([1]; 2 mM dichlorophenol): 100%
- residual activity after 30 min. ([1]; 5 mM dichlorophenol): 100%
- residual activity after 60 min. ([1]; 5 mM dichlorophenol): 100%
- residual activity after 30 min. ([2]; 2 mM dichlorophenol): 93%
- residual activity after 60 min. ([2]; 2 mM dichlorophenol): 87%
- residual activity after 30 min. ([2]; 5 mM dichlorophenol): 81%
- residual activity after 60 min. ([2]; 5 mM dichlorophenol): 58%
- residual activity after 30 min. ([3]; 2 mM dichlorophenol): 68%
- residual activity after 60 min. ([3]; 2 mM dichlorophenol): 56%
- residual activity after 30 min. ([3]; 5 mM dichlorophenol): 18%
- residual activity after 60 min. ([3]; 5 mM dichlorophenol): 7%
